Data set [1] is described as follows: Molar enthalpy of transition or fusion. The conditions noted are these: Crystal; DSC.
For data set [2] the following is noted: Crystal.

Structures are written as SMILES. Numbers after ± are expanded uncertainties.

From the NIST ThermoML archive (doi:10.1016/j.fluid.2019.04.019) come the findings set out here.

`CCCC[n+]1ccccc1.[Cl-]` [1-butylpyridinium chloride]: the “Molar enthalpy of transition or fusion” value in data set [1] is 6.25 ± 0.182 kcal/mol. Also, the Normal melting temperature in data set [2] (DTA) turned out to be 132.2 ± 0.5 °C.

In the case of `CCC[N+]1(C)CCCCC1.[Cl-]` [1-methyl-1-propyl-piperidinium chloride], the Normal melting temperature in data set [2] (visual observation) is 225.2 ± 0.5 °C.

As to `CC(O)C[N+](C)(C)C.[Cl-]` (stereo not drawn) [beta.-methylcholine chloride], the “Molar enthalpy of transition or fusion” value in data set [1] was 1.61 ± 0.0693 kcal/mol. The Normal melting temperature in data set [2] (DTA) stood at 169 ± 0.5 °C.

With `C[N+](C)(C)CCO.[Br-]` [choline bromide], the Normal melting temperature in data set [2] (visual observation) was 308.5 ± 0.5 °C.

As to `C[N+](C)(CCO)CCO.[Cl-]` [diethanoldimethylammonium chloride], the Normal melting temperature in data set [2] (visual observation) was determined as 290.6 ± 0.5 °C.

On to `CC[N+](CC)(CC)CC.[Cl-]` [tetraethylammonium chloride], for which the Normal melting temperature in data set [2] (visual observation) was found to be 262.2 ± 0.5 °C.

`C[N+](C)(C)C.[Cl-]` [tetramethylammonium chloride]: in data set [2] (visual observation), the Normal melting temperature stood at 341.6 ± 0.5 °C.

Take `C[N+](C)(C)Cc1ccccc1.[Cl-]` [trimethylbenzylammonium chloride]: in data set [2] (visual observation), the Normal melting temperature turned out to be 236.1 ± 0.5 °C.
